# From ChEMBL document CHEMBL1201862, “PubChem BioAssay data set” (2004)
# Where “and” joins values, the source holds several entries; their conditions need not be identical. Equal values may be shown once.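 Protocol summary: plate cells (96-well), add compound at 5 concentrations, incubate 48 h, interpolate endpoints linearly. The concentration for 50% growth inhibition is given as GI50.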 Calls of active or inactive are those of the source. Cut-off read from the data, not from the text of the source: active = GI50 up to about 1.1 µM and inactive = higher.
# Columns and labels:
# Test in all cases: NCI-60 cell line screen, 48 h
# SW-620 = system: SW-620
# UO-31 = system: UO-31
# MOLT-4 = system: MOLT-4
# SN12C = system: SN12C
# PC-3 = system: PC-3
# MCF7 = system: MCF7
# OVCAR-3 = system: OVCAR-3
# HCT-15 = system: HCT-15
# MDA-MB-435 = system: MDA-MB-435
# U-251 = system: U-251
# A498 = system: A498
# CAKI-1 = system: CAKI-1
# ACHN = system: ACHN
# SNB-75 = system: SNB-75
# SK-MEL-28 = system: SK-MEL-28
# OVCAR-5 = system: OVCAR-5
# SK-MEL-2 = system: SK-MEL-2
# T47D = system: T47D
# MDA-N = system: MDA-N
# HCC 2998 = system: HCC 2998
SMILES,GI50 (SW-620),GI50 (UO-31),GI50 (MOLT-4),GI50 (SN12C),GI50 (PC-3),GI50 (MCF7),GI50 (OVCAR-3),GI50 (HCT-15) [µM],GI50 (MDA-MB-435),GI50 (U-251),GI50 (A498),GI50 (CAKI-1),GI50 (ACHN),GI50 (SNB-75),GI50 (SK-MEL-28),GI50 (OVCAR-5),GI50 (SK-MEL-2),GI50 (T47D),GI50 (MDA-N),GI50 (HCC 2998)
CCOC1=C/C(=N\Nc2ccc([N+](=O)[O-])cc2)CCC1,14.8 µM (inactive),12.1 µM (inactive),4.83 µM (inactive),29.9 µM (inactive),53.6 µM (inactive),18.3 µM (inactive),29.9 µM (inactive),7.94,16.8 µM (inactive),19.3 µM (inactive),26.3 µM (inactive),28.8 µM (inactive),12.3 µM (inactive),26.4 µM (inactive),23.2 µM (inactive),42.4 µM (inactive),21.5 µM (inactive),–,–,–
Clc1sc(Cl)c2c1[C@H](Cl)C[C@@H]2Cl,3.87 µM (inactive),14.6 µM (inactive),50.2 µM (inactive),16.8 µM (inactive),–,6.52 µM (inactive),24.2 µM (inactive),20.2,18.2 µM (inactive),20.9 µM (inactive),84.1 µM (inactive),20.2 µM (inactive),33.2 µM (inactive),20 µM (inactive),17.5 µM (inactive),29.2 µM (inactive),22.5 µM (inactive),17.6 µM (inactive),20.6 µM (inactive),15.2 µM (inactive)
O=c1c2ccccc2nnn1-c1n[nH]c2ccccc12,> 100 µM (inactive),> 100 µM (inactive),–,> 100 µM (inactive),> 100 µM (inactive),> 100 µM (inactive),> 100 µM (inactive),> 100,> 100 µM (inactive),> 100 µM (inactive),> 100 µM (inactive),> 100 µM (inactive),> 100 µM (inactive),> 100 µM (inactive),> 100 µM (inactive),13.9 µM (inactive),> 100 µM (inactive),> 100 µM (inactive),–,> 100 µM (inactive)
Nc1nc(N)c(/N=N/c2ccc(C(=O)O)c(O)c2)c(N)n1,> 100 µM (inactive),> 100 µM (inactive),> 100 µM (inactive),> 100 µM (inactive),> 100 µM (inactive),61.4 µM (inactive),10.4 µM (inactive),> 100,> 100 µM (inactive),> 100 µM (inactive),> 100 µM (inactive),> 100 µM (inactive),> 100 µM (inactive),> 100 µM (inactive),> 100 µM (inactive),> 100 µM (inactive),> 100 µM (inactive),–,> 100 µM (inactive),–
O=C(CC(=O)C1=CNc2ccccc2S1)C(=O)Nc1ccc(Cl)cc1,> 50 µM (inactive),> 50 µM (inactive),> 50 µM (inactive),> 50 µM (inactive),–,–,> 50 µM (inactive),> 50,–,> 50 µM (inactive),> 50 µM (inactive),> 50 µM (inactive),> 50 µM (inactive),> 50 µM (inactive),> 50 µM (inactive),> 50 µM (inactive),> 50 µM (inactive),–,–,> 50 µM (inactive)
O=S1(=O)NN=C(NCc2ccc(F)cc2)c2ccccc21,> 79.3 µM (inactive),> 100 µM (inactive),> 36 µM (inactive),> 100 µM (inactive),–,> 100 µM (inactive),67.5 µM (inactive),> 64.1,> 100 µM (inactive),33 µM (inactive),> 100 µM (inactive),> 89.5 µM (inactive),95.5 µM (inactive),–,> 100 µM (inactive),> 100 µM (inactive),> 100 µM (inactive),> 100 µM (inactive),> 100 µM (inactive),> 67.6 µM (inactive)
CN(c1ccccc1)c1c(Cl)c(=O)oc2c1ccc1occc12,> 100 µM (inactive),> 100 µM (inactive),55.2 µM (inactive),> 100 µM (inactive),–,–,> 100 µM (inactive),74,–,> 100 µM (inactive),> 100 µM (inactive),53.3 µM (inactive),> 100 µM (inactive),> 100 µM (inactive),> 100 µM (inactive),> 100 µM (inactive),> 100 µM (inactive),–,–,> 100 µM (inactive)
CCOC(=O)c1c(NC(=S)Nc2ccc(C)cc2)sc2c1CCN(C)C2,–,> 100 µM (inactive),> 100 µM (inactive),> 100 µM (inactive),> 100 µM (inactive),> 100 µM (inactive),> 100 µM (inactive),> 100,–,–,59 µM (inactive),> 100 µM (inactive),> 100 µM (inactive),< 0.01 µM (active),–,> 100 µM (inactive),> 100 µM (inactive),> 100 µM (inactive),> 100 µM (inactive),–
NC1=NC2=c3ccccc3=C(c3cnccn3)C2(c2cnccn2)c2ccccc21 (stereo not given),> 100 µM (inactive),44.4 µM (inactive),33.6 µM (inactive),> 100 µM (inactive),–,–,13.8 µM (inactive),> 100,–,98.9 µM (inactive),18.2 µM (inactive),42.8 µM (inactive),64.4 µM (inactive),39.6 µM (inactive),> 100 µM (inactive),> 100 µM (inactive),> 100 µM (inactive),–,–,> 100 µM (inactive)
CC(C)(C)C=C=C(C(C)(C)C)P(=O)(O)O,> 100 µM (inactive),–,–,> 100 µM (inactive),> 100 µM (inactive),–,> 100 µM (inactive),> 100,> 100 µM (inactive),> 100 µM (inactive),> 100 µM (inactive),> 100 µM (inactive),> 100 µM (inactive),> 100 µM (inactive),> 100 µM (inactive),> 100 µM (inactive),> 100 µM (inactive),> 100 µM (inactive),> 100 µM (inactive),> 100 µM (inactive)
O=c1c2cc(I)ccc2nc(-c2cccs2)n1/N=C/c1ccccc1,> 100 µM (inactive),> 100 µM (inactive),–,> 100 µM (inactive),> 100 µM (inactive),> 100 µM (inactive),> 100 µM (inactive),> 100,> 100 µM (inactive),> 100 µM (inactive),–,> 100 µM (inactive),> 100 µM (inactive),> 100 µM (inactive),> 100 µM (inactive),> 100 µM (inactive),0.536 µM (active),80.5 µM (inactive),–,> 100 µM (inactive)
C=CCCn1nc(-c2ccccc2)oc1=O,> 100 µM (inactive),> 100 µM (inactive),> 100 µM (inactive),> 100 µM (inactive),–,–,> 100 µM (inactive),> 100,–,> 100 µM (inactive),> 100 µM (inactive),> 100 µM (inactive),> 100 µM (inactive),> 100 µM (inactive),> 100 µM (inactive),> 100 µM (inactive),> 100 µM (inactive),–,–,> 100 µM (inactive)
CC1CN1c1c(C(=O)/C=C/c2ccc(Cl)cc2)c(-c2ccccc2)nn(C)c1=O (stereo not given),2.44 µM (inactive),6.44 µM (inactive),2.24 µM (inactive),3.11 µM (inactive),–,–,2.6 µM (inactive),1.82,–,2.35 µM (inactive),4.08 µM (inactive),4.74 µM (inactive),2.33 µM (inactive),2.65 µM (inactive),3.89 µM (inactive),5.47 µM (inactive),2.4 µM (inactive),–,–,1.99 µM (inactive)
Cc1nc2c(nc1C)C(=O)C1=C(C2=O)C2C=CC1CC2,2.74 µM (inactive),12.6 µM (inactive),1.32 µM (inactive),16.7 µM (inactive),–,–,5.83 µM (inactive),15.1,–,5.35 µM (inactive),41.9 µM (inactive),18.3 µM (inactive),11.7 µM (inactive),28.6 µM (inactive),18.3 µM (inactive),21.3 µM (inactive),13.2 µM (inactive),–,–,29.4 µM (inactive)
Cc1cc(Br)c(N2C3=C(CC4=C2CCCC4=O)C(=O)CCC3)c(Br)c1,31.6 µM (inactive),60.5 µM (inactive),15.4 µM (inactive),74.1 µM (inactive),18.6 µM (inactive),33.3 µM (inactive),42.9 µM (inactive),29.1,–,32.9 µM (inactive),94.8 µM (inactive),> 100 µM (inactive),46.8 µM (inactive),46.1 µM (inactive),> 100 µM (inactive),> 100 µM (inactive),–,–,–,> 100 µM (inactive)
N#C/C(=C\c1ccc(O)cc1)C(N)=O,> 100 µM (inactive),61.5 µM (inactive) and 91.6 µM (inactive),> 100 µM (inactive),> 100 µM (inactive),–,> 100 µM (inactive),> 100 µM (inactive),> 100,–,> 100 µM (inactive),> 95.7 µM (inactive) and 57.3 µM (inactive),> 100 µM (inactive),> 100 µM (inactive),–,> 100 µM (inactive),> 100 µM (inactive),> 100 µM (inactive),–,–,> 100 µM (inactive)
CN=[S+]([O-])(c1ccccc1)c1ccccc1,> 100 µM (inactive),> 100 µM (inactive),> 100 µM (inactive),> 100 µM (inactive),–,–,> 100 µM (inactive),> 100,–,> 100 µM (inactive),> 100 µM (inactive),> 100 µM (inactive),> 100 µM (inactive),96.8 µM (inactive),> 100 µM (inactive),> 100 µM (inactive),> 100 µM (inactive),–,–,> 100 µM (inactive)
